According to ChEMBL document CHEMBL5728313, “Methods for inhibiting fascin” (2021):

Assay: High Throughput Inhibition Assay: A high throughput assay was developed to screen for fascin specific inhibitors. Purified polymerized F-actin with or without fascin were mixed and incubated to allow actin bundle formation. F-actin polymers were then bound to the poly-D-lysine coated plates. After extensive washes, F-actin polymers were visualized by labeling them with Alexa Fluor 488 phalloidin. Four images were taken from each well and the average fiber length was analyzed for each tested compound.

IC50: 4.3 µM
SMILES: O=C(Cn1cnc2c(cnn2C2CCS(=O)(O)(O)C2)c1=O)Nc1ccc(Cl)cc1 (stereo unspecified)
